From US7271171B2, “Adenosine A3 receptor modulators” (King Pharmaceuticals Research and Development, Inc., priority 1998, dated 2007)
Where two headings read alike, the source gives them in different places.

Columns and labels:
[1] = target: T1, rA1 adenosine receptor (Rattus norvegicus, UniProt P25099); test: Rat A1 adenosine receptor binding assay, [3H]CHA displacement, rat brain membranes
T1 construct: membranes of rat brain (150-200 μg- of protein/assay); from tissue; host or cells: whole brain of male Wistar rats
T1 sequence (P25099 1-326): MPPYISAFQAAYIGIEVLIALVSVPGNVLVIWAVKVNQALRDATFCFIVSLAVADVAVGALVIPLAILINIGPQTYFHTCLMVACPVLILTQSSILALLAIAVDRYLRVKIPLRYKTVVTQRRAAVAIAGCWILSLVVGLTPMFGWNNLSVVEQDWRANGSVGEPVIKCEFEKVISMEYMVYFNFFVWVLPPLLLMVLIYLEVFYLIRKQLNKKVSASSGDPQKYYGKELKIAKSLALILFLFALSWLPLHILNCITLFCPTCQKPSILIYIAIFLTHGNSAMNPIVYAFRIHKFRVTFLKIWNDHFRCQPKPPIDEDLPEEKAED
Experimental: (§1) Male Wistar rats (200-250 g) were decapitated and the whole brain and striatum dissected on ice. […] The homogenate was centrifuged at 48,000 for 10 min, and the pellet was resuspended in the same buffer containing 2 IU/mL adenosine deaminase. After 30 min incubation at 37° C., the membranes were centrifuged and pellets were stored at −80° C. Prior to freezing, an aliquot of homogenate was removed for protein assay with bovine albumin as reference standard. Binding assays were performed on rat brain and striatum membranes respectively, in the presence of 10 mM MgCl2 at 25° C.
(§2) Separation of bound from free radio ligand was performed by rapid filtration through Whatman GF/B filters which were washed three times with ice-cold buffer. Filter bound radioactivity was measured by scintillation spectrometry after addition of 5 mL of Aquassure. […] Ki values were calculated from the Cheng-Prusoff equation. All binding data were analyzed using the nonlinear regression curve-fitting computer program LIGAND.

[2] = target: T2, rA2A adenosine receptor (Rattus norvegicus, UniProt P30543); test: Rat A2A adenosine receptor binding assay, [3H]SCH58261 displacement, rat striatum membranes; settings: for Ki: read-out: rA2A (Ki)
T2 construct: membranes of rat striatum (80-100 μmg of protein/assay); from tissue; host or cells: striatum of male Wistar rats
Experimental: as §1, §2

[3] = target: T3, human recombinant A3 adenosine receptor (Homo sapiens, UniProt P0DMS8); test: Human cloned A3 adenosine receptor binding assay, [125I]AB-MECA, HEK-293 membranes; parameters: USA; host or cells: HEK-293; settings: for Ki: HEK-293 membranes, [125I]AB-MECA, read-out: hA3 (Ki); for rA1/hA3 / rA2A/hA3: selectivity ratio of Ki values
T3 sequence (P0DMS8 1-318): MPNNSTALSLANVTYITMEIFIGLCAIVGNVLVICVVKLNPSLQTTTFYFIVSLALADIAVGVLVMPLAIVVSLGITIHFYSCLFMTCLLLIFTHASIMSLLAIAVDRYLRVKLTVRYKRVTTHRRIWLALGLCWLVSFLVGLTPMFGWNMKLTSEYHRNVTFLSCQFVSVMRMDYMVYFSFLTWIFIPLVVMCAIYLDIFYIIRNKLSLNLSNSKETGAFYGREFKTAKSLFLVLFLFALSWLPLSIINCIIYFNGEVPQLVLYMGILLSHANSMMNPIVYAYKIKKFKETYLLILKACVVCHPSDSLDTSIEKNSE

[4] = rat striatum membranes, [3H]SCH58261

T2 sequence (P30543 whole entry): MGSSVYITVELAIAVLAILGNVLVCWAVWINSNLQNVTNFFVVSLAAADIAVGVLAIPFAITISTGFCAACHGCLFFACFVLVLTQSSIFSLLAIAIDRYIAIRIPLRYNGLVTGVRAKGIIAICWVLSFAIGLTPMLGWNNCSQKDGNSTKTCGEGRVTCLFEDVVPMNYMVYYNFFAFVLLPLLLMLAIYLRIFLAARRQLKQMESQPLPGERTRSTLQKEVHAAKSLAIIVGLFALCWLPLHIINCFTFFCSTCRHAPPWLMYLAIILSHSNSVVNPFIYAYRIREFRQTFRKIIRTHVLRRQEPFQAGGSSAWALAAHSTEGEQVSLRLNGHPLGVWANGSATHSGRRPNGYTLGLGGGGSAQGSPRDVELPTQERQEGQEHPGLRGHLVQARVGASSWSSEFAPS

SMILES | Ki [1] [nM] | Ki [2, 4] [nM] | Ki [3] [nM] | rA1/hA3 [3] | rA2A/hA3 [3] | affinity at human adenosine A3 receptor subtype (in words) ([3]; discussion of Table 1) | affinity for A2A adenosine receptors (in words) [2] | Ki [2] [nM] | affinity and selectivity for the A3 receptor subtype (in words) ([3]; discussion of Table 1)
O=C(Cc1ccccc1)Nc1nc2nn(CCCc3ccccc3)cc2c2nc(-c3ccco3)nn12 [Compound 59, 5-[(Benzyl)carbonyl]amino-8-(3-(phenyl)propyl)-2-(2-furyl)-pyrazolo[4,3-e]1,2,4-triazolo[1,5-c]pyrimidine] | 345 | 400 | 121 | 2.8 | 3.3 | – | – | – | –
CCCn1cc2c(nc(N)n3nc(-c4ccco4)nc23)n1 [Compound 36, 5-Amino-8-propyl-2-(2-furyl)-pyrazolo[4,3-e]1,2,4-triazolo[1,5-c]pyrimidine] | 139 | 20.2 | 613 | 0.22 | 0.03 | – | – | – | –
O=C(Nc1cccc(Cl)c1)Nc1nc2nn(CCCc3ccccc3)cc2c2nc(-c3ccco3)nn12 [Compound 56, 5-[[(3-Chlorophenyl)amino]carbonyl]amino-8-(3-(phenyl)propyl)-2-(2-furyl)-pyrazolo[4,3-e]1,2,4-triazolo[1,5-c]pyrimidine] | > 10000 | 3200 | 42.6 | >234 | 75 | – | – | – | –
CC(C)CCn1cc2c(nc(N)n3nc(-c4ccco4)nc23)n1 [Compound 38, 5-Amino-8-isopentyl-2-(2-furyl)-pyrazolo[4,3-e]1,2,4-triazolo[1,5-c]pyrimidine] | 8.09 | – | 1160 | – | – | low affinity | – | – | –
CCCn1cc2c(nc(NC(=O)Nc3ccc(OC)cc3)n3nc(-c4ccco4)nc23)n1 [Compound 47, 5-[[(4-Methoxyphenyl)amino]carbonyl]amino-8-propyl-2-(2-furyl)-pyrazolo[4,3-e]1,2,4-triazolo[1,5-c]pyrimidine] | > 10000 | – | – | – | – | – | – | – | –
CCn1cc2c(nc(NC(=O)Nc3cccc(Cl)c3)n3nc(-c4ccco4)nc23)n1 [Compound 44, 5-[[(3-Chlorophenyl)amino]carbonyl]amino-8-ethyl-2-(2-furyl)-pyrazolo[4,3-e]1,2,4-triazolo[1,5-c]pyrimidine] | 2700 | 2800 | 2.09 | 1,291 | 1,339 | – | – | – | –
COc1ccc(NC(=O)Nc2nc3nn(CCCc4ccccc4)cc3c3nc(-c4ccco4)nn23)cc1 [Compound 57, 5-[[(4-Methoxyphenyl)amino]carbonyl]amino-8-(3(phenyl)propyl)-2-(2-furyl)-pyrazolo[4,3-e]1,2,4-triazolo[1,5-c]pyrimidine] | 1510 | > 10000 | 19.8 | 76.4 | >504 | – | – | – | –
Nc1nc2nn(CCc3ccccc3)cc2c2nc(-c3ccco3)nn12 [Compound 40, 5-Amino-8-(2-(phenyl)ethyl)-2-(2-furyl)-pyrazolo[4,3-e]1,2,4-triazolo[1,5-c]pyrimidine] | 2.16 | – | 2780 | – | – | low affinity | great affinity | 0.7 | –
CC(C)CCn1cc2c(nc(NC(=O)Nc3cccc(Cl)c3)n3nc(-c4ccco4)nc23)n1 [Compound 50, 5-[[(3-Chlorophenyl)amino]carbonyl]amino-8-isopentyl-2-(2-furyl)-pyrazolo[4,3-e]1,2,4-triazolo[1,5-c]pyrimidine] | 1650 | 1200 | 81.1 | 20 | 15 | – | – | – | –
CCCn1cc2c(nc(NC(=O)Nc3cccc(Cl)c3)n3nc(-c4ccco4)nc23)n1 [Compound 46, 5-[[(3-Chlorophenyl)amino]carbonyl]amino-8-propyl-2-(2-furyl)-pyrazolo[4,3-e]1,2,4-triazolo[1,5-c]pyrimidine] | 1580 | < 10000 | 0.49 | 3,228 | >20,408 | – | – | – | –
COc1ccc(NC(=O)Nc2nc3nn(CCc4ccccc4)cc3c3nc(-c4ccco4)nn23)cc1 [Compound 55, 5-[[(4-Methoxyphenyl)amino]carbonyl]amino-8-(2-(phenyl)ethyl)-2-(2-furyl)-pyrazolo[4,3-e]1,2,4-triazolo[1,5-c]pyrimidine] | 1280 | 1400 | 1.47 | 872 | 951 | – | – | – | –
COc1ccc(NC(=O)Nc2nc3nn(CCC(C)C)cc3c3nc(-c4ccco4)nn23)cc1 [Compound 51, 5-[[(4-Methoxyphenyl)amino]carbonyl]amino-8-isopentyl-2-(2-furyl)-pyrazolo[4,3-e]1,2,4-triazolo[1,5-c]pyrimidine] | 476 | 376 | 29.6 | 16 | 13 | – | – | – | –
Nc1nc2nn(CCCc3ccccc3)cc2c2nc(-c3ccco3)nn12 [Compound 41, 5-Amino-8-(3-(phenyl)propyl)-2-(2-furyl)-pyrazolo[4,3-e]1,2,4-triazolo[1,5-c]pyrimidine] | 11.1 | 0.59 | 2670 | – | – | low affinity | – | – | –
Cn1cc2c(nc(NC(=O)Nc3cccc(Cl)c3)n3nc(-c4ccco4)nc23)n1 [Compound 42, 5-[[(3-Chlorophenyl)amino]carbonyl]amino-8-methyl-2-(2-furyl)-pyrazolo[4,3-e]1,2,4-triazolo[1,5-c]pyrimidine] | 5050 | > 10000 | 0.22 | 22,931 | >45,454 | – | – | – | –
COc1ccc(NC(=O)Nc2nc3nn(C)cc3c3nc(-c4ccco4)nn23)cc1 [Compound 43, 5-[[(4-Methoxyphenyl)amino]carbonyl]amino-8-methyl-2-(2-furyl)-pyrazolo[4,3-e]1,2,4-triazolo[1,5-c]pyrimidine] | > 10000 | > 10000 | 0.1 | >100,000 | >100,000 | – | – | – | –
COc1ccc(NC(=O)Nc2nc3nn(CC=C(C)C)cc3c3nc(-c4ccco4)nn23)cc1 [Compound 53, 5-[[(4-Methoxyphenyl)amino]carbonyl]amino-8-(2-isopentenyl)-2-(2-furyl)-pyrazolo[4,3-e]1,2,4-triazolo[1,5-c]pyrimidine] | 5300 | > 10000 | 29.6 | 179 | >338 | – | – | – | –
CCCCn1cc2c(nc(N)n3nc(-c4ccco4)nc23)n1 [Compound 37, 5-Amino-8-butyl-2-(2-furyl)-pyrazolo[4,3-e]1,2,4-triazolo[1,5-c]pyrimidine] | 26.3 | – | 1110 | 0.02 | 0.003 | – | – | – | –
CCn1cc2c(nc(NC(=O)Nc3ccc(OC)cc3)n3nc(-c4ccco4)nc23)n1 [Compound 45, 5-[[(4-Methoxyphenyl)amino]carbonyl]amino-8-ethyl-2-(2-furyl)-pyrazolo[4,3-e]1,2,4-triazolo[1,5-]pyrimidine] | – | – | 0.28 | >35,714 | >35,714 | – | – | – | high affinity and selectivity
Cn1cc2c(nc(N)n3nc(-c4ccco4)nc23)n1 [Compound 34, 5-Amino-8-methyl-2-(2-furyl)-pyrazolo[4,3-e]1,2,4-triazolo[1,5-c]pyrimidine] | – | 30.6 | 557 | 0.56 | 0.05 | – | – | – | –
